The results in this text go back to patent publication US20240269304A1, “BCL-XL INHIBITOR ANTIBODY-DRUG CONJUGATES AND METHODS OF USE THEREOF” (Novartis AG, priority 2020, published 2024).

One data set relates to NCI-H1650. Nature of the data set: CellTiter Glo 3D spheroid proliferation/survival, 5 days, NCI-H1650, 0.0005-500 nM (Example 10). Type of data set: cell-based, human. The conditions noted are these: spheroids; for IC50: 0.0005-500 nM. On the procedure: One target was assessed: EGFR.
The ability of the BCL-xL antibody drug conjugates to inhibit cell proliferation and survival was assessed using the Promega CellTiter-Glo® proliferation assay.
Cell lines were cultured in media that is optimal for their growth at 5% CO2, 37° C. in a tissue culture incubator. Prior to seeding for the proliferation assay, the cells were split at least 2 days before the assay to ensure optimal growth density. […] Cell viability and cell density were determined using a cell counter (Vi-Cell XR Cell Viability Analyzer, Beckman Coulter).
Cells were seeded at a density of 3,000 cells per well in 45 uL of standard growth media. Plates were spun in a centrifuge for 5 minutes and 1,000 RPM. Plates were incubated at 5% CO2, 37° C. for 72 hours in a tissue culture incubator. On the day of dosing, EGFR targeting BCL-xL ADCs were prepared at 1OX in standard growth media. The prepared drug treatments were then added to the cells resulting in final concentrations of 0.0005-500 nM and a final volume of 50 μL per well. Each drug concentration was tested in quadruplets. Plates were incubated at 5% CO2, 37° C. for 5 days in a tissue culture incubator.
Cell viability was assessed through the addition of 40 μL of CellTiter Glo 3D Cell Viability Assay substrate (Promega, cat #G9681), a reagent which lyses cells and measures total adenosine triphosphate (ATP) content. Wells were mixed thoroughly and plates were incubated at room temperature for 30 minutes to stabilize luminescent signals prior to reading using a luminescence reader (EnVision Multilabel Plate Reader, PerkinElmer).
To evaluate the effect of the drug treatments, luminescent counts from wells containing untreated cells (100% viability) were used to normalize treated samples. […] IC50 and Amax values were extrapolated from the resultant curves.
(In ATP-based viability assays light output follows the ATP content of the culture.)

Data set [1] in a line: ADC stability study: % aggregates by SEC after incubation at 37° C. for 168 h. It counts as physicochemical. On the procedure: Size Exclusion Chromatography: Size exclusion chromatography (SEC) was performed for quality control of each ADCs by measuring monomer percentage of the conjugate. The analysis was performed on analytical column Superdex 200 Increase 5/150 GL (GE Healthcare, 28990945) in isocratic conditions 100% PBS pH7.4 (Sigma Life Science, P3813, 10PAK), flow 0.45 mI/min for 12 minutes. The % aggregate fraction of the conjugate sample was quantified based on the peak area absorbance at 280 nm. Its calculation was based on the ratio between the high molecular weight eluent at 280 nm divided by the sum of peak area absorbance at the same wavelength of the high molecular weight and monomeric eluents multiplied by 100.
Characterization of the exemplary ADCs is summarized in Table 13 (coupling, LC-MS method, OAR, aggregation status, ADO stability and yield). The average OAR values were determined using the above LC-MS methods and the percentage of aggregates was measured by size exclusion chromatography (SEC) during the quality control of the ADO and after the stability study (incubation at 37° C. for 168 h).

In another data set the test system is ALL-SIL cells. Put plainly: CellTiterGlo (CTG) cell viability, 72 h, ALL-SIL (Example 8). Type of data set: cell-based. In short, it runs like this:
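In RPMI with 20% FBS, ALL-SIL cells were exposed for 72 h to serially diluted payloads or ADCs (9 concentrations, triplicate) at 37 °C/5% CO2. Viability was measured as cellular ATP by CellTiterGlo luminescence, with IC50 from four-parameter fit.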

The test system of a further data set is DND-41 cells. Nature of the data set: CellTiterGlo (CTG) cell viability, 72 h, DND-41 (Example 8). Type of data set: cell-based. In short, it runs like this: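 DND-41 cells in RPMI with 10% heat-inactivated FBS exposed to payloads or ADCs for 3 days at 37° C/5% CO2, in triplicate. Viability measured as cellular ATP by CellTiterGlo luminescence; IC50 from four-parameter fit.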

In another data set the test system is H1650 cells. Put plainly: CellTiterGlo (CTG) cell viability, 3D, 120 h, H1650 (Example 8). Type of data set: cell-based, human. The conditions noted are these: Homo sapiens, NCI-H1650, H1650 3D.
Another data set relates to ALL-SILL (T-ALL). Nature of the data set: CellTiter-Glo viability 72 h, single agent or 1/1 combination, ALL-SIL (Example 9). It counts as cell-based. To be noted: single agent or 1/1 combination as labelled. On the procedure: Cell lines were cultured in the media described above at 37° C. in a humidified atmosphere containing 5% CO2. […] Effects of payloads or ADCs on cell viability were assessed after 3 days of incubation at 37° C./5% CO2 by quantification of cellular ATP levels using CellTiter-Glo reagent (Promega Ref: G7571) at 75 μL reagent/well. All the conditions were tested in triplicates. Luminescence was quantified on a multipurpose plate reader. IC50s were calculated using standard four-parametric curve fitting.

The mark [2] stands for this setting: n1, read-out: ALL-SILL (T-ALL) IC50 n1.
[3] abbreviates: n2, read-out: ALL-SILL (T-ALL) IC50 n2.

Where two headings read alike, the source gives them in different places. Where only a bound is given, the exact number is not on record here.

As to `COCCOCCOCCOCCOCCOCCOCCOCCn1cc(COC(=O)N(Cc2cn(CCOCCOCCOCCOCCOCCOCCOCCOC)nn2)Cc2cc(NC(=O)[C@H](CCCNC(N)=O)NC(=O)[C@@H](NC(=O)CCOCCN3C(=O)CC(C)C3=O)C(C)C)ccc2C[N+](C)(C)CC#Cc2ccc(OCCCc3sc(N4CCCc5c4nnc(Nc4nc6ccccc6s4)c5C)nc3C(=O)O)c(F)c2)nn1` (mixture of isomers) [EGFR1-L1A-P1], the IC50 (as a rule, the concentration that inhibits the measured activity by half) in the data set with NCI-H1650 is less than 0.686 nM.
Same read-out and setting: then `COCCOCCOCCOCCOCCOCCOCCOCCn1cc(COC(=O)N(Cc2cn(CCOCCOCCOCCOCCOCCOCCOCCOC)nn2)Cc2cc(NC(=O)[C@H](CCCNC(N)=O)NC(=O)[C@@H](NC(=O)CCOCCN3C(=O)CC(C)C3=O)C(C)C)ccc2C[N+](C)(C)CC#Cc2ccc(OCCCc3sc(N(C)c4cc(C)c(Nc5nc6ccccc6s5)nn4)nc3C(=O)O)c(F)c2)nn1` (mixture of isomers) [EGFR1-L1A-P2], with less than 6.17 nM.
In the case of `Cc1c(Nc2nc3ccccc3s2)nnc2c1CCCN2c1nc(C(=O)O)c(CCCOc2ccc(C#CC[N+](C)(C)Cc3ccc(NC(=O)[C@H](CCCNC(N)=O)NC(=O)[C@@H](NC(=O)CCOCCN4C(=O)CC(C)C4=O)C(C)C)cc3CN(C)C(=O)OCc3cn(CCOCCOCCOCCOCCOCCOCCOCCOCCC(=O)O)nn3)cc2F)s1` (mixture of isomers) [EGFR1-L3A-P1], in the data set on NCI-H1650, the “NCI-H1650 Amax (Span)” value is reported as greater than 100 and the 50% inhibitory concentration (IC50) was less than 0.686 nM.
`Cc1c(Nc2nc3ccccc3s2)nnc2c1CCCN2c1nc(C(=O)O)c(CCCOc2ccc(C#CCN(C)C(=O)COc3ccc(NC(=O)[C@H](CCCNC(N)=O)NC(=O)[C@@H](NC(=O)CCOCCN4C(=O)CC(C)C4=O)C(C)C)cc3CN(C)C(=O)OCc3cn(CCOCCOCCOCCOCCOCCOCCOCCOCCC(=O)O)nn3)cc2F)s1` (mixture of isomers) [EGFR1-L3C-P3]: the “NCI-H1650 Amax (Span)” value in the data set with NCI-H1650 was 100.6.
The compound `Cc1cc(N(CCCC(O)C[N+](C)(C)C)c2nc(C(=O)O)c(CCCOc3ccc(C#CCN(C)C(=O)OCc4ccc(NC(=O)[C@H](CCCNC(N)=O)NC(=O)[C@@H](NC(=O)CCOCCN5C(=O)CC(C)C5=O)C(C)C)cc4CN(C)C(=O)OCc4cn(CCOCCOCCOCCOCCOCCOCCOCCOCCC(=O)O)nn4)cc3F)s2)nnc1Nc1nc2ccccc2s1` (mixture of isomers) [EGFR1-L3C-P5] had an IC50 in the data set on NCI-H1650 greater than 500 nM.
Still for that read-out and setting: then `COCCOCCOCCOCCOCCOCCOCCOCCn1cc(COC(=O)N(C)Cc2cc(NC(=O)[C@H](CCCNC(N)=O)NC(=O)[C@@H](NC(=O)CCOCCN3C(=O)CC(C)C3=O)C(C)C)ccc2C[N+](C)(C)CC#Cc2ccc(OCCCc3sc(N4CCCc5c4nnc(Nc4nc6ccccc6s4)c5C)nc3C(=O)O)c(F)c2)nn1` (mixture of isomers) [EGFR1-L4A-P1], with less than 0.686 nM; and `Cc1c(Nc2nc3ccccc3s2)nnc2c1CCCN2c1nc(C(=O)O)c(CCCOc2ccc(C#CC[N+](C)(C)Cc3ccc(NC(=O)[C@H](CCCNC(N)=O)NC(=O)[C@@H](NC(=O)CCOCCN4C(=O)CC(C)C4=O)C(C)C)cc3COCc3cn(CCOCCOCCOCCOCCOCCOCCOCCOCCC(=O)O)nn3)cc2F)s1` (mixture of isomers) [EGFR1-L7A-P1], with less than 0.686 nM.
Still for that read-out and setting: the result for `Cc1c(Nc2nc3ccccc3s2)nnc2c1CCCN2c1nc(C(=O)O)c(CCCOc2ccc(C#CCN(C)C(=O)OCc3ccc(NC(=O)[C@H](CCCNC(N)=O)NC(=O)[C@@H](NC(=O)CCOCCN4C(=O)CC(C)C4=O)C(C)C)cc3COCc3cn(CCOCCOCCOCCOCCOCCOCCOCCOCCC(=O)O)nn3)cc2F)s1` (mixture of isomers) [EGFR1-L7C-P3] reads less than 6.17 nM.
Same read-out and setting: the result for `Cc1cc(N(CCCN(C)C)c2nc(C(=O)O)c(CCCOc3ccc(C#CCN(C)C(=O)OCc4ccc(NC(=O)[C@H](CCCNC(N)=O)NC(=O)[C@@H](NC(=O)CCOCCN5C(=O)CC(C)C5=O)C(C)C)cc4COCc4cn(CCOCCOCCOCCOCCOCCOCCOCCOCCC(=O)O)nn4)cc3F)s2)nnc1Nc1nc2ccccc2s1` (mixture of isomers) [EGFR1-L7C-P6] reads greater than 500 nM.
For `Cc1cc(N(C)c2nc(C(=O)O)c(CCCOc3ccc(C#CCN(C)C(=O)OCc4ccc(NC(=O)[C@H](CCCNC(N)=O)NC(=O)[C@@H](NC(=O)CCOCCN5C(=O)CC(C)C5=O)C(C)C)cc4COCc4cn(CCOCCOCCOCCOCCOCCOCCOCCOCCC(=O)O)nn4)cc3F)s2)nnc1Nc1nc2ccccc2s1` (mixture of isomers) [EGFR1-L7C-P7], the IC50 with NCI-H1650 is less than 55.6 nM.
On the same count and under the same terms, then `COCOCCOCCOCCOCCOCCOCCOCCn1cc(COCc2cc(NC(=O)[C@@H](CCCNC(N)=O)NC(=O)[C@H](NC(=O)CCOCCN3C(=O)CC(C)C3=O)C(C)C)ccc2C[N+](C)(C)CC#Cc2ccc(OCCCc3sc(N4CCCc5c4nnc(Nc4nc6ccccc6s4)c5C)nc3C(=O)O)c(F)c2)nn1` (mixture of isomers) [EGFR1-L8A-P1], with less than 2.06 nM.
Take `C=C(C)CCCC[C@](C)(NC(=O)[C@@](C)(NC(=O)CCOCCN1C(=O)CC(C)C1=O)C(C)C)C(=O)Nc1ccc(CC(C)(C)CC#Cc2ccc(OCCCC3=C(C(C)=O)N=C(N4CCCc5c4nnc(Oc4nc6ccccc6o4)c5C)C3)c(C)c2)c(S(=O)(=O)O)c1` (stereo partly drawn) [Ab D - L27A-P1]: in data set [1], the “Stab w1 +37° C. % Agg (by SEC)” value was 9%. Moreover, the half-maximal inhibitory concentration (IC50) in the data set on ALL-SIL cells (experiment n1, read-out: ALLSIL CTG 72 h IC50 nM n1) was determined as 0.028 nM; with ALL-SIL cells (experiment n2, read-out: ALLSIL CTG 72 h IC50 nM n2) it was 0.018 nM; in the data set with ALL-SIL cells (mean of n1 and n2, read-out: ALLSIL CTG 72 h IC50 nM Mean of n1 and n2) it was 0.023 nM; in the data set with DND-41 cells (experiment n1, read-out: DND41 CTG 72 h IC50 nM n1), 0.21 nM; in the data set with DND-41 cells (experiment n2, read-out: DND41 CTG 72 h IC50 nM n2) it was 0.28 nM; with DND-41 cells (mean of n1 and n2, read-out: DND41 CTG 72 h IC50 nM Mean of n1 and n2), 0.245 nM.
As for `Cc1c(Nc2nc3ccccc3s2)nnc2c1CCCN2c1ccc(-c2cnn(C[C@]34C[C@]5(C)C[C@](C)(C3)C[C@@](OCCN3CCCCCC3)(C5)C4)c2C)c(C(=O)O)n1` [P33, 3-[1-[[3-[2-(azepan-1-yl)ethoxy]-5,7-dimethyl-1-adamantyl]methyl]-5-methyl-pyrazol-4-yl]-6-[3-(1,3-benzothiazol-2-ylamino)-4-methyl-6,7-dihydro-5H-pyrido[2,3-c]pyridazin-8-yl]pyridine-2-carboxylic acid], the 50% inhibitory concentration (IC50) with H1650 cells (experiment n1, read-out: H1650 3D CTG IC50 n1) worked out at 0.89 nM; in the data set with H1650 cells (experiment n2, read-out: H1650 3D CTG IC50 n2), 0.57 nM; in the data set with H1650 cells (mean of n1 and n2, read-out: H1650 3D CTG IC50 Mean of n1 and n2), 0.73 nM; in the data set with ALL-SILL (T-ALL) (mean, read-out: ALL-SILL (T-ALL) IC50 mean), 0.145 nM; in the data set on ALL-SILL (T-ALL) (setting [2]), 0.1 nM; in the data set on ALL-SILL (T-ALL) (setting [3]) it was 0.19 nM.
As to `Cc1c(Nc2nc3ccccc3s2)nnc2c1CCCN2c1ccc(-c2cnn(CC34CC5(C)CC(C)(CC(CCCNCCCO)(C5)C3)C4)c2C)c(C(=O)O)n1` [P40, 6-[3-(1,3-benzothiazol-2-ylamino)-4-methyl-6,7-dihydro-5H-pyrido[2,3-c]pyridazin-8-yl]-3-[1-[[3-[3-(3-hydroxypropylamino)propyl]-5,7-dimethyl-1-adamantyl]methyl]-5-methyl-pyrazol-4-yl]pyridine-2-carboxylic acid], the half-inhibitory concentration (IC50) in the data set with ALL-SILL (T-ALL) (setting [2]) was 1.06 nM; with ALL-SILL (T-ALL) (setting [3]) it was 1.26 nM.
